Experimental data reported in patent US10196424B2, “Oral peptide inhibitors of interleukin-23 receptor and their use to treat inflammatory bowel diseases” (Protagonist Therapeutics, Inc., priority 2014, dated 2019).

Test system: DSS-induced colitis in Sprague Dawley rats
Assay: Rat colitis model: 9 days of 3% DSS-containing drinking water
Format: in vivo
Settings: 100 mg/kg PO, QD
Description: Rat Colitis Model: 9 Days of 3% DSS-Containing Drinking Water
In this model, colitis was induced in SD rats by 9 days of ad lib exposure to drinking water containing 3% DSS. The disease activity index (DAI) score and ratio of colon weight:colon length were compared between three study groups (n=6 rats/group): vehicle, 3% DSS, and 3% DSS with positive control (sulfasalazine administered at 100 mg/kg PO, QD).
Acute colitis was induced by feeding female Sprague Dawley rats with 3% (wt/vol) DSS dissolved in drinking water. […] A neutralizing anti-IL-23p19 antibody was used as a comparator, and was administered intraperitoneally at 4 mg/kg on the same day and fifth day after starting DSS. […] At necropsy, the entire colon was removed from the cecum to the rectum. The colon was measured for length, flushed with PBS to remove feces, weighed, and opened longitudinally to determine macroscopic score.
Statistical analysis for significance was compared to the vehicle treated group and was determined using Student's T-test (GraphPad Prism). Differences were noted as significant *p≤0.05, **p≤0.01, ***p≤0.001, ****p≤0.0001.

For O=C(O)c1cc(/N=N/c2ccc(S(=O)(=O)Nc3ccccn3)cc2)ccc1O [sulfasalazine], which “terminal ratio of colon weight:colon length” value (3% DSS rats with and without treatment) is on record?
The value was “significant”.

What about the “disease activity index (DAI) score” value (3% DSS rats, compared to DSS alone, from Day 5) of the same molecule?
The value was “attenuated the disease score”.
